# Test results reported in patent US8481734B2, “Pyrazine derivatives and uses thereof, including in medical imaging and visualization applications” (Medibeacon Development LLC, priority 2008, dated 2013).
# Columns and labels:
# [1] = Comparison of clearance rates with an iothalamate reference standard (FIG. 3); assay type: in vivo, Spraque-Dawley rats; settings: Sprague-Dawley rats; iothalamate five rats, compound 18 six rats; FIG. 3 in milliliters per minute
# Experimental: FIG. 3 provides a bar graph comparison of the clearance rates of an iothalamate reference standard and compound 18. Spraque-Dawley rats were again used as animal models for studying the clearance rates. Iothalamate clearance rates were measured in five rats, whereas clearance rates for compound 18 were measured in six rats. The clearance rates are expressed in FIG. 3 in terms of milliliters per minute.
# [2] = Clearance curve of compound 18 in rats, monitored by fluorescence (RFUs) over time (FIG. 2); assay type: in vivo; settings: Sprague-Dawley rats, i.v. 1 ml of 2 mmol solution in PBS, approx. 6 μmol/kg, four rats, fluorescence (RFU)
# Experimental: Four Sprague-Dawley rats were used to obtain the experimental results depicted in FIG. 2, with each of the four lines of the graph representing data obtained from an individual rat. The rats were injected intravenously with 1 ml of a 2 mmol solution of compound 18 in phosphate-buffered saline CBS), giving a final concentration of compound 18 in each animal of approximately 6 μmol/kg. The presence of compound 18 in each of the animals was monitored over time and measured in Relative Fluorescence Units (RFUs). The clearance curve in FIG. 2 provides RFUs over time for each of the four rats. […] The clearance rate then began to level, with complete clearance of compound 18 occurring at approximately 6000 minutes.
# [3] = Excitation and emission wavelengths; assay type: physicochemical
# Excerpt: Compound 18, above, is a longer wavelength compound (excitation ˜500 nm, emission 600 nm orange). To achieve the red shift in both excitation and emission wavelengths, electron donation into the ring was increased by alkyl substitution on the pyrazine ring nitrogens. The synthetic strategy for these longer wavelength analogues involves functionalizing the carboxyls first through amide chemistry described above followed by reductive amination of the pyrazine amino groups. Thus the synthesis of compound 18, above, is presented below. MP-3064 was coupled with Boc-ethylenediamine using the EDC method to afford MP-3183. This material was then converted to MP-3216 by reductive amination using Boc-2-aminoacetaldehyde and sodium triacetoxyborohydride. MP-3216 was purified by flash chromatography and deprotected with TFA to afford the corresponding tetramine salt. This material was then acylated with NHS-m-dPEG12 and purified by HPLC to afford compound 18: […]
"clearance rate, compound 18 compared with iothalamate [1]",time of complete clearance [2],excitation wavelength [3] [nm],emission wavelength ([3]; orange) [nm],SMILES
virtually the same,approximately 6000 minutes,~500,600,"COCCOCCOCCOCCOCCOCCOCCOCCOCCOCCOCCOCCC(=O)NCCNC(=O)c1nc(NCCNC(=O)CCOCCOCCOCCOCCOCCOCCOCCOCCOCCOCCOCCOC)c(C(=O)NCCNC(=O)CCOCCOCCOCCOCCOCCOCCOCCOCCOCCOCCOCCOC)nc1NCCNC(=O)CCOCCOCCOCCOCCOCCOCCOCCOCCOCCOCCOCCOC [compound 18, 3,6-Bis(38-oxo-2,5,8,11,14,17,20,23,26,29,32,35-dodecaoxa-39-azahentetracontan-41-ylamino)-N^2,N^5-bis(38-oxo-2,5,8,11,14,17,20,23,26,29,32,35-dodecaoxa-39-azahentetracontan-41-yl)pyrazine-2,5-dicarboxamide]"
virtually the same,–,–,–,"CNC(=O)c1c(I)c(NC(C)=O)c(I)c(C(=O)O)c1I [iothalamate, reference compound]"
